Laboratory results: US8022056B2, “Compositions and methods for the treatment of cancer” (Tautatis, Inc, priority 2006, dated 2011)

How the values were obtained:
[1] = test system: target kinases versus GSK3, PKC and PKA; assay: Kinase potency and selectivity profile under identical kinase assay conditions; format: biochemical
Text: Relative to the compounds disclosed in WO00/01699 and WO04/048384, compounds of the structural formula 1-4 have a higher degree of selectivity in favor of several antiproliferative kinases, as exemplified for the representative compound 1 and directly related compounds 7 of WO04/048384 and 8-9 of WO00/01699, containing the general scaffold of 10, respectively.

[2] = test system: U373 glioblastoma cell line; assay: Long-term growth inhibition, crystal violet staining; format: cell-based, human; conditions: U373, over a week
Procedure: (§1) For proliferation assays tumor cell suspensions (100 μl/well) were seeded into 96-well flat bottomed microtitration plates at a density of ca. 15 cells/microscopic field (magnification 320×). After 2-3 days the culture medium was removed by suction and replaced by fresh medium (200 μl/well) containing varying concentrations of the compound of the formula 1 or vehicle (0.5% DMSO). Compound 1 was added as […] concentrated feed solutions. On every plate 16 wells served as controls and 16 wells were used per concentration of 1. After various times of incubation the cells were fixed with glutardialdehyde and stored in a refrigerator. At the end of the assay all plates were processed simultaneously (staining with 0.02% aqueous crystal violet solution (100 μl/well). Excess dye was removed by rinsing the trays with water for 20 min. The stain bound by the cells was redissolved in 70% ethanol (180 μl/well) while shaking the microplates for about 3 hours. Absorbance (proportional to cell mass) was measured at 578 nm using a BIOTEK 309 Autoreader. The results (mean values±standard deviation) were plotted as growth curves.
The EGF-receptor independent U373 Human Glioblastoma cell line (obtained from ATCC, Rockville, USA) was cultured as above. Treatment with the compound of the formula 1 and analysis of growth inhibition was performed analogous to Example 3.

ERK2 = ERK2 (Homo sapiens, UniProt P28482); assay: Kinase inhibition under standard conditions, ERK2; format: biochemical
ERK2, sequence (P28482 whole entry, species assumed): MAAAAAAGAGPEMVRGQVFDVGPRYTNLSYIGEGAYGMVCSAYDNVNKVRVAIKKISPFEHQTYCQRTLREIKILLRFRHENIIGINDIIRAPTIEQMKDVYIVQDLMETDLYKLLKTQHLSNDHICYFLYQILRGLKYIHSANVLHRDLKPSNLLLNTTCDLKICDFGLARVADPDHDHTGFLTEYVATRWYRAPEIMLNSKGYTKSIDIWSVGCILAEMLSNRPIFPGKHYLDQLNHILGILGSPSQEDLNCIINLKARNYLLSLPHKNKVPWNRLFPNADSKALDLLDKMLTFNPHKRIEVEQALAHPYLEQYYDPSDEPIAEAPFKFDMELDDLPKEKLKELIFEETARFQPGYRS

[3] = test system: HT29 colon cancer cell line; assay: Long-term growth inhibition, crystal violet staining; format: cell-based, human; conditions: 10 nM
Procedure: as §1
The HT29 human colon cancer cell line (obtained from ATCC, Rockville, USA) was cultured as above. Treatment with the compound of the formula 1 and analysis of growth inhibition was performed analogous to Example 3.

PKC = assay: Kinase inhibition under standard conditions, PKC; format: biochemical
GSK3 = assay: Kinase inhibition under standard conditions, GSK3; format: biochemical
PKA = assay: Kinase inhibition under standard conditions, PKA; format: biochemical
[4] = test system: MDA-MB-231 breast cancer cell line; assay: Long-term growth inhibition, crystal violet staining; format: cell-based, human
Procedure: The human estrogen receptor and EGF receptor negative MDA-MB-231 (HTB 26) breast cancer cell line (obtained from ATCC, Rockville, USA) were cultured in McCoy's 5A medium containing L-glutamine, 2.2 g/l NaHCO3 and 5% fetal calf serum. Cells were maintained in a water saturated atmosphere (95% air/5% carbon dioxide) at 37° C. in 75-cm^2 culture flasks, and were serially passaged following trypsinization using 0.05% trypsin/0.02% EDTA.
as §1

CDK1 = CDK1 (Homo sapiens, UniProt P06493); assay: Kinase inhibition under standard conditions, CDK1; format: biochemical
CDK1, sequence (P06493 whole entry, species assumed): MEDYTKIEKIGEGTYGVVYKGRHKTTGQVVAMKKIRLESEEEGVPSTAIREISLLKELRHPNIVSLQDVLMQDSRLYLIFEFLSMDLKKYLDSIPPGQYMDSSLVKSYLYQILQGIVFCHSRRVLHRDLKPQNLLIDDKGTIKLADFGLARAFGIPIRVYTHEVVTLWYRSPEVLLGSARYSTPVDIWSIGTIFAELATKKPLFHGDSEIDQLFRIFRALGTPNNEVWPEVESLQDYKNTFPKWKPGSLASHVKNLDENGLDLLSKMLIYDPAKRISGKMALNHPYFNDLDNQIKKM
CDK1, sequence (P14635 whole entry partner, species assumed): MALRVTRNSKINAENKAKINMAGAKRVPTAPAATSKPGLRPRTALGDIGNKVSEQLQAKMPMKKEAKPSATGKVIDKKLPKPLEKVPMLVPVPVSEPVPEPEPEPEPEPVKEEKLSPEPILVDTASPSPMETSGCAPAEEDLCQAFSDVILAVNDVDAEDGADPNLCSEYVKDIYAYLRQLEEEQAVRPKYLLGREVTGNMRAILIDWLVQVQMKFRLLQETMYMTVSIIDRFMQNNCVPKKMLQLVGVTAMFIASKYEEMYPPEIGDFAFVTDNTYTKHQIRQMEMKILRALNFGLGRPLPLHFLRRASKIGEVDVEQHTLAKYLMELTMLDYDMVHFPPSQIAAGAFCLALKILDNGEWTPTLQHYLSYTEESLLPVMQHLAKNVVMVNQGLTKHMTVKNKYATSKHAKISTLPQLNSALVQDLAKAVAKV

[5] = Propper et al.; cited from earlier work
[6] = test system: breast cancer tumor cell lines; conditions: large panel, Konecny et al.; cited from earlier work

In the case of `C[C@]12O[C@H](C[C@]1(N)C(N)=O)n1c3ccccc3c3c4c(c5c6ccccc6n2c5c31)CNC4=O` [Compound 2], the “potency and selectivity profile compared with 1” value (from here on “potency and selectivity profile”) [1] is reported as “virtually identical potency and selectivity profile as 1”.
With `CNC(=O)[C@@]1(N)C[C@H]2O[C@]1(C)n1c3ccccc3c3c4c(c5c6ccccc6n2c5c31)C(=O)NC4=O` [Compound 3] the “potency and selectivity profile” value [1] was “virtually identical potency and selectivity profile as 1”.
In the case of `C[C@]12O[C@H](C[C@]1(N)C(N)=O)n1c3ccccc3c3c4c(c5c6ccccc6n2c5c31)C(=O)NC4=O` [Compound 4], the “potency and selectivity profile” value [1] is reported as “virtually identical potency and selectivity profile as 1”.
In the case of `COC(=O)[C@@]1(N)CC2OC1(C)n1c3ccccc3c3c4c(c5c6ccccc6n2c5c31)C(=O)NC4` (some centres unmarked) [Compound 6], the “concentration required for a similar effect as 10 nM of 1” value [2] is reported as “ten-fold higher concentration”, the IC50 (ERK2) is reported as 0.87 µM and the “proliferation of HT29 cells” value [3] is reported as “completely ineffective”. The IC50 (PKC) was > 10 µM, the IC50 (GSK3) was > 10 µM and the IC50 (PKA) was > 10 µM. The “growth of MDA-MB-231 cells” value ([4]; 10 nM, 1 week of exposure) was “virtually ineffective”, the “concentration required for a similar effect as 10 nM of 1” value ([4]; MDA-MB-231, 1 week) was “ten-fold higher concentration” and the IC50 (CDK1) was 0.65 µM.
`CNC(=O)[C@@]1(N)CC2CC1n1c3ccccc3c3c4c(c5c6ccccc6n2c5c31)C(=O)NC4` (some centres unmarked) [Compound 7] showed an IC50 (ERK2) of 0.6 µM, an IC50 (PKC) of 0.26 µM and an IC50 (GSK3) of 0.35 µM. For the same compound, the IC50 (PKA) was 0.44 µM and the IC50 (CDK1) was 0.18 µM.
In the case of `CNC(=O)[C@@]1(O)CC2CC1n1c3ccccc3c3c4c(c5c6ccccc6n2c5c31)C(=O)NC4=O` (some centres unmarked) [Compound 8], the IC50 (ERK2) is reported as 0.12 µM, the IC50 (PKC) is reported as 0.12 µM and the IC50 (GSK3) is reported as 0.037 µM. For the same compound, the IC50 (PKA) was 0.078 µM and the IC50 (CDK1) was 0.063 µM.
`CNC(=O)[C@@]1(O)CC2CC1n1c3ccccc3c3c4c(c5c6ccccc6n2c5c31)C(=O)NC4` (some centres unmarked) [Compound 9] gave an IC50 (ERK2) of 0.48 µM, an IC50 (PKC) of 0.21 µM and an IC50 (GSK3) of 0.4 µM. The IC50 (PKA) was 0.55 µM and the IC50 (CDK1) was 0.11 µM.
In the case of `CO[C@@H]1[C@H](N(C)C(=O)c2ccccc2)C[C@H]2O[C@]1(C)n1c3ccccc3c3c4c(c5c6ccccc6n2c5c31)C(=O)NC4` [PKC-412], the human serum binding [5] is listed as “extreme human serum binding”.
In the case of `CS(=O)(=O)CCNCc1ccc(-c2ccc3ncnc(Nc4ccc(OCc5cccc(F)c5)c(Cl)c4)c3c2)o1` [Tykerb], the “share of breast cancer tumor cell lines with growth inhibitory activity” value [6] is listed as “about 20%”.
